Reference: patent publication US10941157B2, “Pesticidal compositions and uses thereof” (Gilead Apollo, LLC, priority 2015, dated 2021)
In brackets after ≈: the same amount, converted by molar mass. Read-outs that look alike come from different tables or passages of the source.

Columns and labels:
[1] = test system: Diplodia maydis (Dm); assay: In vitro pathogen growth inhibition assay, Dm; assay type: cell-based; settings: Stenocarpella maydis, 48 h
In short: (§1)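 Spores of Dm, Fv and Pc were diluted in 17% V8 liquid medium; Rs used 1.5 mm mycelial plugs in ¼ PDB. Compounds from 2.5 mg/ml DMSO stocks were combined with inoculum, growth was read by OD600 at 24 and 48 h with blank subtraction, and the reported value is the concentration giving ≥90% inhibition.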

[2] = test system: Phakopsora pachyrhizi; assay: Foliar protection test for Asian soybean rust control; assay type: in vivo; settings: foliar application to soybean (Glycine max AG4832), percent disease area evaluated 14 days later
[3] = test system: Phytophthora capsici (Pc); assay: In vitro pathogen growth inhibition assay, Pc; assay type: cell-based; settings: 48 h
In short: as §1

[4] = test system: Sphaerotheca fuliginea; assay: Foliar protection for cucumber powdery mildew control; assay type: in vivo; settings: foliar spray on Cucumis sativus cv. Straight Eight, inoculated 24 hours after treatment, evaluated 7 days later
In short: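 Protective foliar spray on 10-day-old Straight Eight cucumbers, with S. fuliginea spores dusted from infected stock plants 24 h after treatment. Disease developed at 23–27 °C, 60% RH and a 16 h photoperiod. Leaves were rated for mildew growth after 7 days; test rates 10 ppm or below.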

[5] = test system: Fusarium virguliforme (Fv); assay: In vitro pathogen growth inhibition assay, Fv; assay type: cell-based
In short: as §1

[6] = test system: Botrtyis cinerea (Bc); assay: In vitro pathogen growth inhibition assay, Bc; assay type: cell-based; settings: 48 h
In short: (§2)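 Value reported is the compound concentration reaching ≥90% growth inhibition, from OD readings at 24 and 48 h after blank subtraction, confirmed visually. Inoculum was spores diluted in 17% V8 medium, except Rs, using 1.5 mm mycelial plugs in ¼ PDB; actual compound concentration corrected via OD600.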

[7] = test system: Fusarium moniliforme (Fm); assay: In vitro pathogen growth inhibition assay, Fm; assay type: cell-based; settings: Fusarium verticillioides
In short: as §2

[8] = test system: Puccinia triticina; assay: Foliar protection test for wheat leaf rust control; assay type: in vivo; settings: foliar application to wheat (Triticum aestivum cv. Winterhawk), evaluated 10 days later
[9] = test system: Septoria tritici (St); assay: In vitro pathogen growth inhibition assay, St; assay type: cell-based; settings: Zymoseptoria tritici, 48 h
In short: as §2

[10] = test system: Collectotrichum graminicola (Cg); assay: In vitro pathogen growth inhibition assay, Cg; assay type: cell-based; settings: 48 h
In short: as §2

[11] = test system: Fusarium graminearum; assay type: in vivo; settings: spray on flowering Triticum aestivum cv. Samson, inoculated 24 hours after treatment, evaluated 14 days later
[12] = test system: Mycosphaerella graminicola (synthetic Septoria tritici); assay: Foliar protection test for wheat septoria leaf blotch control; assay type: in vivo; settings: foliar spray on Triticum aestivum cv. WinterHawk, inoculated 1 hour after treatment, evaluated 16 days later
[13] = test system: Blumeria graminis f. sp. hordei; assay: Foliar protection test for barley powdery mildew control; assay type: in vivo; settings: foliar spray on Hordeum vulgare cv. Perry, inoculated 24 hours after treatment, evaluated 7 days later
In short: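 Protective foliar test: compound atomized onto both leaf surfaces of 6-day-old Hordeum vulgare cv. Perry, followed after 24 h by spore-cloud inoculation from colonized untreated plants. Disease rated on leaves 7 days on, plants held at 20 to 22° C and 70% RH.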

[14] = test system: Rhizoctonia solani (Rs); assay: In vitro pathogen growth inhibition assay, Rs (mycelial plugs); assay type: cell-based; settings: Rhizoctonia solani, 48 h, mycelial plugs
In short: as §1

[15] = ≥90% inhibition, 48 hours vs 2% DMSO control, read-out: Compound Concentration (ppm) sufficient for ≥90% inhibition of growth, Dm
[16] = ≥90% inhibition, 48 hours vs 2% DMSO control, read-out: Compound Concentration (ppm) sufficient for ≥90% inhibition of growth, Pc
[17] = ≥90% inhibition, 48 hours vs 2% DMSO control, read-out: Compound Concentration (ppm) sufficient for ≥90% inhibition of growth, Fv
[18] = ≥90% inhibition, 48 hours vs 2% DMSO control, read-out: Compound Concentration (ppm) sufficient for ≥90% inhibition of growth, Bc
[19] = ≥90% inhibition, 48 hours vs 2% DMSO control, read-out: Compound Concentration (ppm) sufficient for ≥90% inhibition of growth, Fm
[20] = ≥90% inhibition, 48 hours vs 2% DMSO control, read-out: Compound Concentration (ppm) sufficient for ≥90% inhibition of growth, St
[21] = ≥90% inhibition, 48 hours vs 2% DMSO control, read-out: Compound Concentration (ppm) sufficient for ≥90% inhibition of growth, Cg
[22] = ≥90% inhibition, 48 hours vs 2% DMSO control, read-out: Compound Concentration (ppm) sufficient for ≥90% inhibition of growth, Rs
[23] = ≥90% growth inhibition, 48 hours, vs 2% DMSO control, read-out: Compound Concentration (ppm) sufficient for ≥90% inhibition of Dm
[24] = ≥90% growth inhibition, 48 hours, vs 2% DMSO control, read-out: Compound Concentration (ppm) sufficient for ≥90% inhibition of Pc
[25] = ≥90% growth inhibition, 48 hours, vs 2% DMSO control, read-out: Compound Concentration (ppm) sufficient for ≥90% inhibition of Fv
[26] = ≥90% growth inhibition, 48 hours, vs 2% DMSO control, read-out: Compound Concentration (ppm) sufficient for ≥90% inhibition of Bc
[27] = ≥90% growth inhibition, 48 hours, vs 2% DMSO control, read-out: Compound Concentration (ppm) sufficient for ≥90% inhibition of Fm
[28] = ≥90% growth inhibition, 48 hours, vs 2% DMSO control, read-out: Compound Concentration (ppm) sufficient for ≥90% inhibition of St
[29] = ≥90% growth inhibition, 48 hours, vs 2% DMSO control, read-out: Compound Concentration (ppm) sufficient for ≥90% inhibition of Cg
[30] = ≥90% growth inhibition, 48 hours, vs 2% DMSO control, read-out: Compound Concentration (ppm) sufficient for ≥90% inhibition of Rs

Row | Compound | IC90 [1, 15] | Asian Soybean Rust Control at a compound concentration of 25 ppm or lower [2] | IC90 [3, 16] | Cucumber Powdery Mildew Control at a compound concentration of 10 ppm or lower [4] | IC90 [5, 17] | IC90 [6, 18] | IC90 [7, 19] | Wheat Leaf Rust Control at a compound concentration of 10 ppm or lower [8] | IC90 [9, 20] | Wheat Fusarium Head Blight Control at a compound concentration of 25 ppm or lower [11] | Septoria Leaf Blotch Control at a compound concentration of 25 ppm or lower [12] | Barley Powdery Mildew Control at a compound concentration of 10 ppm or lower [13] | IC90 [1, 23] | IC90 [3, 24] | IC90 [5, 25] | IC90 [6, 26] | IC90 [7, 27] | IC90 [9, 28] | IC90 [10, 29] | IC90 [14, 30] | also measured
1 | COc1ccc(F)cc1[C@H](Cn1c(=O)n([C@H](C)C(=O)N(C)C(C)C)c(=O)c2c(C)c(-n3nccn3)sc21)OCCO [Compound I-090, (R)-2-(1-((R)-2-(5-fluoro-2-methoxyphenyl)-2-(2-hydroxyethoxy)ethyl)-5-methyl-2,4-dioxo-6-(2H-1,2,3-triazol-2-yl)-1,4-dihydrothieno[2,3-d]pyrimidin-3 (2H)-yl)-N-isopropyl-N-methylpropanamide] | > 0.08 mg/L | B (from 50 to 69% control of Asian soybean rust) | 2 mg/L (≈ 3.4 µM) | A (from 70% to 84% control of cucumber powdery mildew) | > 0.4 mg/L | 2 mg/L (≈ 3.4 µM) | 0.08 mg/L (≈ 0.136 µM) | AA (≥85% control of wheat leaf rust) | ≥ 2 mg/L | D (<25% control of wheat fusarium head blight) | A (from 70% to 84% control of wheat septoria leaf blotch) | A (from 70% to 84% control of barley powdery mildew) | – | – | – | – | – | – | – | – | IC90 [10, 21]: 0.08 mg/L (≈ 0.136 µM); IC90 [14, 22]: 0.08 mg/L (≈ 0.136 µM)
2 | COCCO[C@@H](Cn1c(=O)n(C(C)C(=O)NC(C)C)c(=O)c2c(C)c(-n3nccn3)sc21)c1cc(F)ccc1OC (stereo partly drawn) [Compound I-082, 2-(1-((R)-2-(5-fluoro-2-methoxyphenyl)-2-(2-methoxyethoxy)ethyl)-5-methyl-2,4-dioxo-6-(2H-1,2,3-triazol-2-yl)-1,4-dihydrothieno[2,3-d]pyrimidin-3 (2H)-yl)-N-isopropylpropanamide] | 0.4 mg/L (≈ 0.68 µM) | B (from 50 to 69% control of Asian soybean rust) | 10 mg/L (≈ 17 µM) | AA (≥85% control of cucumber powdery mildew) | 0.4 mg/L (≈ 0.68 µM) | 2 mg/L (≈ 3.4 µM) | 0.08 mg/L (≈ 0.136 µM) | B (from 50 to 69% control of wheat leaf rust) | 30 mg/L (≈ 51 µM) | C (from 25 to 49% control of wheat fusarium head blight) | AA (≥85% control of wheat septoria leaf blotch) | AA (≥85% control of barley powdery mildew) | – | – | – | – | – | – | – | – | IC90 [10, 21]: 0.4 mg/L (≈ 0.68 µM); IC90 [14, 22]: 0.24 mg/L (≈ 0.408 µM)
3 | CCOC(=O)c1sc2c(c1C)c(=O)n(C(C)(C)C(=O)NC(C)C)c(=O)n2C[C@H](OC[C@@H](C)C#N)c1cc(F)ccc1OC [Compound I-258, (R)-ethyl-1-(2-((S)-2-cyanopropoxy)-2-(5-fluoro-2-methoxyphenyl)ethyl)-3-(1-(isopropylamino)-2-methyl-1-oxopropan-2-yl)-5-methyl-2,4-dioxo-1,2,3,4-tetrahydrothieno[2,3-d]pyrimidine-6-carboxylate] | – | C (from 25 to 49% control of Asian soybean rust) | – | AA (≥85% control of cucumber powdery mildew) | – | – | – | A (from 70% to 84% control of wheat leaf rust) | – | C (from 25 to 49% control of wheat fusarium head blight) | B (from 50 to 69% control of wheat septoria leaf blotch) | A (from 70% to 84% control of barley powdery mildew) | 0.4 mg/L (≈ 0.649 µM) | ≥ 10 mg/L | 0.4 mg/L (≈ 0.649 µM) | 0.4 mg/L (≈ 0.649 µM) | 0.08 mg/L (≈ 0.13 µM) | ≥ 2 mg/L | 0.08 mg/L (≈ 0.13 µM) | 0.08 mg/L (≈ 0.13 µM) | –
4 | CCNC(=O)C(C)(C)n1c(=O)c2c(C)c(C(=O)OCC)sc2n(C[C@H](OCCC#N)c2ccccc2OC)c1=O [Compound I-234, (R)-ethyl-1-(2-(2-cyanoethoxy)-2-(2-methoxyphenyl)ethyl)-3-(1-(ethylamino)-2-methyl-1-oxopropan-2-yl)-5-methyl-2,4-dioxo-1,2,3,4-tetrahydrothieno[2,3-d]pyrimidine-6-carboxylate] | – | A (from 70% to 84% control of Asian soybean rust) | – | AA (≥85% control of cucumber powdery mildew) | – | – | – | AA (≥85% control of wheat leaf rust) | – | C (from 25 to 49% control of wheat fusarium head blight) | C (from 25 to 49% control of wheat septoria leaf blotch) | AA (≥85% control of barley powdery mildew) | 2 mg/L (≈ 3.5 µM) | > 50 mg/L | 2 mg/L (≈ 3.5 µM) | 2 mg/L (≈ 3.5 µM) | 0.08 mg/L (≈ 0.14 µM) | > 10 mg/L | 2 mg/L (≈ 3.5 µM) | 2 mg/L (≈ 3.5 µM) | –
5 | CCc1ccc(F)cc1[C@H](Cn1c(=O)n(C(C)(C)C(=O)NC(C)C)c(=O)c2c(C)c(-n3nccn3)sc21)OC[C@H](C)C#N [Compound I-284, 2-(1-((R)-2-((R)-2-cyanopropoxy)-2-(2-ethyl-5-fluorophenyl)ethyl)-5-methyl-2,4-dioxo-6-(2H-1,2,3-triazol-2-yl)-1,4-dihydrothieno[2,3-d]pyrimidin-3 (2H)-yl)-N-isopropyl-2-methylpropanamide] | – | B (from 50 to 69% control of Asian soybean rust) | – | AA (≥85% control of cucumber powdery mildew) | – | – | – | AA (≥85% control of wheat leaf rust) | – | C (from 25 to 49% control of wheat fusarium head blight) | AA (≥85% control of wheat septoria leaf blotch) | AA (≥85% control of barley powdery mildew) | 2 mg/L (≈ 3.28 µM) | > 50 mg/L | 0.4 mg/L (≈ 0.656 µM) | 0.4 mg/L (≈ 0.656 µM) | 0.08 mg/L (≈ 0.131 µM) | > 50 mg/L | 0.08 mg/L (≈ 0.131 µM) | 0.08 mg/L (≈ 0.131 µM) | –
